For 27 compounds, EC50 results are on record in patent publication US12492193B2, “Pyrazole derivatives for the treatment of cystic fibrosis” (Fondazione Istituto Italiano Di Tecnologia, priority 2017, dated 2025).

Molecules are shown by their SMILES.

In general, EC50 refers to the concentration that produces a half-maximal response.

The target of this assay is T1, mutant CFTR (Homo sapiens, UniProt P13569, DEL508-508).
T1 construct: expressed in transfected cells
T1 sequence (P13569 with tags, fused parts or gaps DEL508-508): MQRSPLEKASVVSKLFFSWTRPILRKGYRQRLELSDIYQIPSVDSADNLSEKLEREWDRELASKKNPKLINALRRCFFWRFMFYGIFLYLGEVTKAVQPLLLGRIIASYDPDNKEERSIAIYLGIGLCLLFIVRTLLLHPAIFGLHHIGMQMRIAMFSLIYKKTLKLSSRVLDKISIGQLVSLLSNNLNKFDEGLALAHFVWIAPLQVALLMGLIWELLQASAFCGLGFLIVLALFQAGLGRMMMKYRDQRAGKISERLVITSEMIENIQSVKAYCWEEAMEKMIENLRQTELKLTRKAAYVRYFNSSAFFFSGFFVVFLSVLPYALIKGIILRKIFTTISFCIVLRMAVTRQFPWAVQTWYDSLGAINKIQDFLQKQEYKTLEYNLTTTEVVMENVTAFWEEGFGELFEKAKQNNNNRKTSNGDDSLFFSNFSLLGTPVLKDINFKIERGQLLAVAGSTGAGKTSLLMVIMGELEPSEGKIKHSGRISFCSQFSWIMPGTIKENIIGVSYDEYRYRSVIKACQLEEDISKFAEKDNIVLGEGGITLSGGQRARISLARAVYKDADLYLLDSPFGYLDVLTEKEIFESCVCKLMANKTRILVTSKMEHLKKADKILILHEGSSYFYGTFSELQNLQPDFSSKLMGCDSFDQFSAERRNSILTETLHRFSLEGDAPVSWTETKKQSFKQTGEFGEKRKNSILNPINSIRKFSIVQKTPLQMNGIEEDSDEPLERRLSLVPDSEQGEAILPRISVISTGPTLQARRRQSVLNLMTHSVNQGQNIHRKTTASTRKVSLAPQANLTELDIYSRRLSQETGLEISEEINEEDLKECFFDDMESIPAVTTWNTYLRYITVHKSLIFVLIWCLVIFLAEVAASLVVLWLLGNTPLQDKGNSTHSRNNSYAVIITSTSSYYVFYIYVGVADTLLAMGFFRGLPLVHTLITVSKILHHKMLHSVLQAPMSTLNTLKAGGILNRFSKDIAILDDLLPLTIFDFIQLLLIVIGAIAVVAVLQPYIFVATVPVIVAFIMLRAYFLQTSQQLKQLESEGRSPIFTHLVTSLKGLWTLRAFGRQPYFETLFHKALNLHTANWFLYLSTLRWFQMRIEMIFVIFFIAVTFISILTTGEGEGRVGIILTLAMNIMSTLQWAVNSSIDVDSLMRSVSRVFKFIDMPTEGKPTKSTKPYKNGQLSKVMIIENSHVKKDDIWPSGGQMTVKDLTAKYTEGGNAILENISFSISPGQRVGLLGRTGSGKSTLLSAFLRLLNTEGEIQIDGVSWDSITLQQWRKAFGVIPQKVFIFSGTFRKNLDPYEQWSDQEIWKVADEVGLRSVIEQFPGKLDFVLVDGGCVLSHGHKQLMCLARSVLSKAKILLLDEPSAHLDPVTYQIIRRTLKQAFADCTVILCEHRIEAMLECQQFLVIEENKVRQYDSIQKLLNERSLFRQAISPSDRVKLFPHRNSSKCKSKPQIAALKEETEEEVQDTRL
Kind of assay: Fluorescence (HS-YFP) assay for CFTR activity, corrector assay. It is filed as cell-based. To be noted: CFBE41o- and FRT cells with stable expression of mutant CFTR, 24 h compound treatment. The procedure, abridged:
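CFBE41o- or FRT cells stably expressing mutant CFTR and HS-YFP were exposed to compounds for 24 h (corrector mode), then stimulated 30 min at 37° C with forskolin (20 μM) plus genistein (50 μM). YFP quenching after 100 mM iodide injection; initial slope from exponential fit of final 10 s; EC50 reported.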
With `Cc1nc2ccc(N(C)C(=O)c3cccc(-n4nc(C(F)(F)F)c(Cl)c4OCc4ccc(C(=O)O)cc4)c3)cc2o1` [compound 198, 4-[[4-Chloro-2-[3-[methyl-(2-methyl-1,3-benzoxazol-6-yl)carbamoyl]phenyl]-5-(trifluoromethyl)pyrazol-3-yl]oxymethyl]benzoic acid], the half-maximal effective concentration (EC50) is below 1000 nM. The same measure for `CN(C(=O)c1cccc(-n2nc(C(F)(F)F)c(C#N)c2Oc2ccc(C(=O)OC(C)(C)C)cc2)c1)c1ccc2c(c1)OCO2` [compound 200, Tert-butyl 4-[2-[3-[1,3-benzodioxol-5-yl (methyl)carbamoyl]phenyl]-4-cyano-5-(trifluoromethyl)pyrazol-3-yl]oxybenzoate]: below 1000 nM. Take `CN(C(=O)c1cccc(-n2nc(C(F)(F)F)c(Cl)c2OCc2ccc(C(=O)OC(C)(C)C)cc2)c1)c1ccc2c(c1)OC(F)(F)O2` [compound 201, Tert-butyl 4-[[4-chloro-2-[3-[(2,2-difluoro-1,3-benzodioxol-5-yl)-methyl-carbamoyl]phenyl]-5-(trifluoromethyl)pyrazol-3-yl]oxymethyl]benzoate]: the EC50 was below 1000 nM. The same measure for `Cc1nc2cc(F)c(N(C)C(=O)c3cccc(-n4nc(C(F)(F)F)c(Cl)c4OCc4ccc(C(=O)OC(C)(C)C)cc4)c3)cc2o1` [compound 202, Tert-butyl 4-[[4-chloro-2-[3-[(5-fluoro-2-methyl-1,3-benzoxazol-6-yl)-methyl-carbamoyl]phenyl]-5-(trifluoromethyl)pyrazol-3-yl]oxymethyl]benzoate]: below 1000 nM; for `Cc1cc(C(F)(F)F)nn1-c1cccc(S(=O)(=O)N(C)c2ccc3c(c2)OCO3)c1` [compound 204, N-(1,3-Benzodioxol-5-yl)-N-methyl-3-[5-methyl-3-(trifluoromethyl)pyrazol-1-yl]benzenesulfonamide]: 1000 to 2000 nM. The result for `Cc1c(Cl)c(C(F)(F)F)nn1-c1cccc(C(=O)Nc2ccc3c(c2C(=O)O)OCO3)c1` [compound 205, 5-[[3-[4-chloro-5-methyl-3-(trifluoromethyl)pyrazol-1-yl]benzoyl]amino]-1,3-benzodioxole-4-carboxylic acid] reads above 2000 nM; that for `Cc1c(Cl)c(C(F)(F)F)nn1-c1cccc(C(=O)Nc2ccc3c(c2CO)OCO3)c1` [compound 206, 3-[4-chloro-5-methyl-3-(trifluoromethyl)pyrazol-1-yl]-N-[4-(hydroxymethyl)-1,3-benzodioxol-5-yl]benzamide], above 2000 nM; that for `Cc1c(Cl)c(C(F)(F)F)nn1-c1cccc(C(=O)N(C)c2ccc3c(c2C=O)OCO3)c1` [compound 207, 3-[4-chloro-5-methyl-3-(trifluoromethyl)pyrazol-1-yl]-N-(4-formyl-1,3-benzodioxol-5-yl)-N-methyl-benzamide], above 2000 nM. The result for `Cc1c(Cl)c(C(F)(F)F)nn1-c1cccc(C(=O)N(C)c2ccc3c(c2C(=O)O)OCO3)c1` [compound 208, 5-[[3-[4-chloro-5-methyl-3-(trifluoromethyl)pyrazol-1-yl]benzoyl]-methyl-amino]-1,3-benzodioxole-4-carboxylic acid] reads above 2000 nM. For the compound `Cc1c(Cl)c(C(F)(F)F)nn1-c1cccc(C(=O)N(C)c2ccc3c(c2CO)OCO3)c1` [compound 209, 3-[4-chloro-5-methyl-3-(trifluoromethyl)pyrazol-1-yl]-N-[4-(hydroxymethyl)-1,3-benzodioxol-5-yl]-N-methyl-benzamide], the EC50 is above 2000 nM.

For `CN(C(=O)c1cccc(-n2nc(C(F)(F)F)c(C#N)c2Oc2ccc(C(=O)O)cc2)c1)c1ccc2c(c1)OCO2` [compound 210, 4-[2-[3-[1,3-Benzodioxol-5-yl(methyl)carbamoyl]phenyl]-4-cyano-5-(trifluoromethyl)pyrazol-3-yl]oxybenzoic acid], the EC50 was above 2000 nM. The result for `CN(C(=O)c1cccc(-n2nc(C(F)(F)F)c(Cl)c2OCc2ccc(C(=O)O)cc2)c1)c1ccc2c(c1)OC(F)(F)O2` [compound 211, 4-[[4-Chloro-2-[3-[(2,2-difluoro-1,3-benzodioxol-5-yl)-methyl-carbamoyl]phenyl]-5-(trifluoromethyl)pyrazol-3-yl]oxymethyl]benzoic acid] reads below 1000 nM; that for `Cc1nc2cc(F)c(N(C)C(=O)c3cccc(-n4nc(C(F)(F)F)c(Cl)c4OCc4ccc(C(=O)O)cc4)c3)cc2o1` [compound 212, 4-[[4-Chloro-2-[3-[(5-fluoro-2-methyl-1,3-benzoxazol-6-yl)-methyl-carbamoyl]phenyl]-5-(trifluoromethyl)pyrazol-3-yl]oxymethyl]benzoic acid], below 1000 nM; that for `CN(C(=O)c1cccc(-n2nc(C(F)(F)F)cc2O[C@H]2CC[C@@H](C(=O)O)CC2)c1)c1ccc2c(c1)OCO2` [compound 216, Cis-4-[2-[3-[1,3-benzodioxol-5-yl(methyl)carbamoyl]phenyl]-5-(trifluoromethyl)pyrazol-3-yl]oxycyclohexane carboxylic acid], below 1000 nM.

For `CN(C(=O)c1cccc(-n2nc(C(F)(F)F)c(Cl)c2CO)c1)c1ccc2c(c1)OC(F)(F)O2` [compound 217, 3-[4-Chloro-5-(hydroxymethyl)-3-(trifluoromethyl)pyrazol-1-yl]-N-(2,2-difluoro-1,3-benzodioxol-5-yl)-N-methyl-benzamide], the EC50 is below 1000 nM.

Consider `CN(C(=O)c1cccc(-n2nc(C(F)(F)F)cc2COc2ccc(C(=O)O)cc2)c1)c1ccc2c(c1)OC(F)(F)O2` [compound 218, 4-[[2-[3-[(2,2-difluoro-1,3-benzodioxol-5-yl)-methyl-carbamoyl]phenyl]-5-(trifluoromethyl)pyrazol-3-yl]methoxy]benzoic acid], for which the EC50 is below 1000 nM. The same measure for `CN(C(=O)c1cccc(-n2nc(C(F)(F)F)c(C#N)c2COc2ccc(C(=O)O)cc2)c1)c1ccc2c(c1)OC(F)(F)O2` [compound 224, 4-[[4-Cyano-2-[3-[(2,2-difluoro-1,3-benzodioxol-5-yl)-methyl-carbamoyl]phenyl]-5-(trifluoromethyl)pyrazol-3-yl]methoxy]benzoic acid]: below 1000 nM. The result for `CN(C(=O)c1cccc(-n2nc(C(F)(F)F)c(Cl)c2COc2cnc(C(=O)O)cn2)c1)c1ccc2c(c1)OC(F)(F)O2` [compound 226, 5-[[4-Chloro-2-[3-[(2,2-difluoro-1,3-benzodioxol-5-yl)-methyl-carbamoyl]phenyl]-5-(trifluoromethyl)pyrazol-3-yl]methoxy]pyrazine-2-carboxylic acid] reads below 1000 nM. The same measure for `CN(C(=O)c1cccc(-n2nc(C(F)(F)F)c(Cl)c2CO[C@H]2CC[C@H](C(=O)O)CC2)c1)c1ccc2c(c1)OC(F)(F)O2` [compound 228, Trans-4-[[4-chloro-2-[3-[(2,2-difluoro-1,3-benzodioxol-5-yl)-methyl-carbamoyl]phenyl]-5-(trifluoromethyl)pyrazol-3-yl]methoxy]cyclohexanecarboxylic acid]: below 1000 nM; for `Cc1nc2ccc(N(C)C(=O)c3cccc(-n4nc(C(F)(F)F)c(Cl)c4COc4ccc(C(=O)O)cc4)c3)cc2o1` [compound 233, 4-[[4-Chloro-2-[3-[methyl-(2-methyl-1,3-benzoxazol-6-yl)carbamoyl]phenyl]-5-(trifluoromethyl)pyrazol-3-yl]methoxy]benzoic acid]: below 1000 nM; for `Cc1nc2cc(F)c(N(C)C(=O)c3cccc(-n4nc(C(F)(F)F)c(Cl)c4COc4ccc(C(=O)O)cc4)c3)cc2o1` [compound 234, 4-[[4-Chloro-2-[3-[(5-fluoro-2-methyl-1,3-benzoxazol-6-yl)-methyl-carbamoyl]phenyl]-5-(trifluoromethyl)pyrazol-3-yl]methoxy]benzoic acid]: below 1000 nM. On to `Cc1nc2ccc(N(C)C(=O)c3cccc(-n4nc(C(F)(F)F)c(Cl)c4COc4ccc(C(=O)O)cc4)c3)cn2n1` [compound 236, 4-[[4-Chloro-2-[3-[methyl-(2-methyl-[1,2,4]triazolo[1,5-a]pyridin-6-yl)carbamoyl]phenyl]-5-(trifluoromethyl)pyrazol-3-yl]methoxy]benzoic acid], for which the EC50 is below 1000 nM. Regarding `Cc1cc2ncc(N(C)C(=O)c3cccc(-n4nc(C(F)(F)F)c(Cl)c4COc4ccc(C(=O)O)cc4)c3)cn2n1` [compound 238, 4-[[4-Chloro-2-[3-[methyl-(2-methylpyrazolo[1,5-a]pyrimidin-6-yl)carbamoyl]phenyl]-5-(trifluoromethyl)pyrazol-3-yl]methoxy]benzoic acid], the EC50 lay in the range of 1000 to 2000 nM. With `Cc1cc2cc(N(C)C(=O)c3cccc(-n4nc(C(F)(F)F)c(Cl)c4COc4ccc(C(=O)O)cc4)c3)ccn2n1` [compound 239, 4-[[4-Chloro-2-[3-[methyl-(2-methylpyrazolo[1,5-a]pyridin-5-yl)carbamoyl]phenyl]-5-(trifluoromethyl)pyrazol-3-yl]methoxy]benzoic acid], the EC50 was below 1000 nM. The same measure for `Cc1noc2cc(N(C)C(=O)c3cccc(-n4nc(C(F)(F)F)c(Cl)c4COc4ccc(C(=O)O)cc4)c3)ccc12` [compound 245, 4-[[4-Chloro-2-[3-[methyl-(3-methyl-1,2-benzoxazol-6-yl)carbamoyl]phenyl]-5-(trifluoromethyl)pyrazol-3-yl]methoxy]benzoic acid]: below 1000 nM; for `COC(=O)C12CC(COc3cc(C(F)(F)F)nn3-c3cccc(C(=O)N(C)c4ccc5c(c4)OC(F)(F)O5)c3)(C1)C2` [compound 254, Methyl 3-[[2-[3-[(2,2-difluoro-1,3-benzodioxol-5-yl)-methyl-carbamoyl]phenyl]-5-(trifluoromethyl)pyrazol-3-yl]oxymethyl]bicyclo[1.1.1]pentane-1-carboxylate]: below 1000 nM; for `CN(C(=O)c1cccc(-n2nc(C(F)(F)F)cc2OCC23CC(C(=O)O)(C2)C3)c1)c1ccc2c(c1)OC(F)(F)O2` [compound 255, 3-[[2-[3-[(2,2-Difluoro-1,3-benzodioxol-5-yl)-methyl-carbamoyl]phenyl]-5-(trifluoromethyl)pyrazol-3-yl]oxymethyl]bicyclo[1.1.1]pentane-1-carboxylic acid]: below 1000 nM.
